# Experimental data taken from US20080182835A1 (priority 2006, published 2008).
# Columns and labels:
# [1] = system: BHK cells infected with Sindbis virus; assay: Cell viability of Sindbis-infected BHK cells, Trypan blue dye-exclusion and light microscopy; format: cell-based, hamster; details: for cell viability (viable cell count): 48 hour infection
# Experimental: Additional cell viability studies were done using a combined assessment of cellular morphology via light microscopy, or visual inspection of cell viability, and plasma membrane integrity measurements using a Trypan blue dye-exclusion assay. Specifically, BHK cells were seeded to the wells of a 96-well plate (2×10^4 cells/well) and cultured overnight in complete growth medium. […] After a 48 hour infection period, the cells were resuspended and an aliquot of cells (10 μL) was mixed with 90 μL 0.2% trypan blue. The number of viable cells was determined by counting with a hemocytometer.
# Also, a corresponding set of wells was identically prepared exclusively for observation using Trypan blue staining and light microscopy. FIGS. 6A-6H are light microscopy images showing cell morphology at various concentrations of Co(NH3)6 at 48 hours post infection following 6 hours of pretreatment with Co(NH3)6. […] Viable cells remain attached to the tissue culture substrate and have an elongated, epithelial cell-like appearance. The arrows in FIGS. 6E-6G indicate examples of cells that have retained an elongated and adherent morphology. Non-viable cells are detached from the tissue culture substrate and are rounded. FIGS. 6B-6H illustrate that pronounced cell death is apparent in the presence of no Co(NH3)6 (FIG. 6B) and at lower concentrations of Co(NH3)6 (FIGS. 6C and 6D).
# SV-infected BHK cells = assay: Flow cytometry propidium iodide viability of Sindbis-infected BHK cells; format: cell-based, hamster
substance,measurement,setting,value
Co(NH3)6,cell viability (viable cell count),"[1]; Sindbis-infected, 6 hours pretreatment, at 1.2 mM",80%
same,cell viability (viable cell count),"[1]; Sindbis-infected, at 0.15 mM",further decreased viability
same,"cell morphology, viable cells by light microscopy","[1]; Sindbis-infected, 48 hours post infection, at 0.6 and 1.2 mM",viable cells appeared more pronounced
same,concentration providing optimal protection against Sindbis virus,[1]; light microscopy and cell viability count,1.2 mM
same,percentage of PI-positive (non-viable) cells,"SV-infected BHK cells; at 0.15 mM, relative to untreated infected cells",significantly lower percentage
same,effect of timing of treatment on survivability of the cells,"SV-infected BHK cells; pretreatment, co-infection, 2, 4 and 24 hours post-infection",very little effect
